Test results: patent US20150065709A1, “Aminoquinazoline Derivative And Use Thereof In Preparing Anti-Malignant Tumor Medicament” (METABOMICS, INC, priority 2012, published 2015)
Like-named read-outs stand apart in the source and are kept apart here.

Key:
EGFR = EGFR (Homo sapiens, UniProt P00533); experiment: Caliper Mobility Shift Assay, inhibition of EGFR kinase activity; assay type: biochemical
HER2 = HER2 (Homo sapiens, UniProt P04626); experiment: Caliper Mobility Shift Assay, inhibition of HER2 kinase activity; assay type: biochemical
Sequence of HER2 (P04626 23-1255): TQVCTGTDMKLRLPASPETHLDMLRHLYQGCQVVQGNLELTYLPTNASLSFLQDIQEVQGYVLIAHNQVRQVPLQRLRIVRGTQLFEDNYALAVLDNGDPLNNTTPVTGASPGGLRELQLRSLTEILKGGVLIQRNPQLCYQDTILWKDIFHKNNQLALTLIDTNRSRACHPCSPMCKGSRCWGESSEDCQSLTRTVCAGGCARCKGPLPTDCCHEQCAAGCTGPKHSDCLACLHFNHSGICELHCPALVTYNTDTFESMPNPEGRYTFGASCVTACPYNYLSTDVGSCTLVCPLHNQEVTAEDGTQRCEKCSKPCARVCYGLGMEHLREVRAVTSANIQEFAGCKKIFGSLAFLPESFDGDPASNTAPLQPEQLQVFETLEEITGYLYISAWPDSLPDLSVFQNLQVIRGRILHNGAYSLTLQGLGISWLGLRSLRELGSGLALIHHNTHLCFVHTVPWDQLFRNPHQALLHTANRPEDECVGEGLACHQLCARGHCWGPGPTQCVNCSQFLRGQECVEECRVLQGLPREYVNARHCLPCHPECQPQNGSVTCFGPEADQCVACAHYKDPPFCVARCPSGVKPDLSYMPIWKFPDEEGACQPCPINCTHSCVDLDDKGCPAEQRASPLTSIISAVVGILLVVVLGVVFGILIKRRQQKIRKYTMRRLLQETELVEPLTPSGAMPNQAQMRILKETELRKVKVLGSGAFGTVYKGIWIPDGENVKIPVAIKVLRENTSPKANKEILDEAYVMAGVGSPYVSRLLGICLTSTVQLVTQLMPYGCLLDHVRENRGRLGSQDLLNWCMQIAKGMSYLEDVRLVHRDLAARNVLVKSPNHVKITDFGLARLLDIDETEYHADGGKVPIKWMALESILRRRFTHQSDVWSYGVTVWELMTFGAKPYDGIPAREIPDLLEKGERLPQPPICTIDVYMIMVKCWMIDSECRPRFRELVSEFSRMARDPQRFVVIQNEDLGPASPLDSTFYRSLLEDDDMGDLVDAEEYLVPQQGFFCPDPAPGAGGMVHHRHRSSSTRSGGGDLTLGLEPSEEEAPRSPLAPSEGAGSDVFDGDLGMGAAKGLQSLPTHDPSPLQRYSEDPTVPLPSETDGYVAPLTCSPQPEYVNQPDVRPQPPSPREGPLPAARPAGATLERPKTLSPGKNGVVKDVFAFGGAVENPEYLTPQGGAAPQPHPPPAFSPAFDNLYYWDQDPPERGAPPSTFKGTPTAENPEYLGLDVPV

[1] = Pharmacokinetic experiments in CD-1 mice; assay type: in vivo; conditions: male, mouse, plasma; for half-life: read-out: Terminal t1/2 (converted); for Vd: read-out: Vss
Experimental: Experiment animals: CD-1 mice, male, 6-7 weeks of age; body weight: 20-25 g; Preparation of samples: the test compounds respectively were formulated to 0.2 mg/mL (for intravenous administration) and 1.0 mg/mL (for oral administration) for use. Administration routes: oral administration/intravenous administration. Amount and frequency of administration: 5 mL/kg for single administration.
Sample collection: blood was collected at the time points of 5 min, 15 min, 30 min, 1 h, 2 h, 4 h, 8 h and 24 h, about […] whole blood was collected from 3 animals at each time point. All of the animals were euthanized after the experiments.
Sample analysis: the collected samples were detected by LC-MS/MS, and the instrument model is SHIMADZU20A-API4000.
(§1) Pharmacokinetic data analysis: the obtained plasma concentration data were fitted and calculated using WinNolin according to non-compartment model.

A549 = experiment: Inhibition of tumor cells, MTS method; assay type: cell-based; conditions: Homo sapiens, 72 hours
Experimental: (§2) (1) Compounds: in vitro studies the test compounds was dissolved in 100% DMSO and diluted until the final concentration of DMSO was 0.1%. The 0.1% (v/v) DMSO was added into culture medium as solvent control. 9 concentration gradients were tested and each gradient was repeated twice. (2) Tumor cell lines: the tumor cell lines were cultivated in RPMI10 culture medium containing 10% fetal calf serum in incubator at 37° C. in a 5% CO2 air incubator. The tested tumor cell lines were: BT474, MDA-MB-231, SK-Br-3, A431, H292, H1975, HCC827, A549, H1650 and H1734. (3) MTS method: cells were seeded into 96-well plate to give a density of about 3000 cells per well, and incubated overnight in a humidified incubator at 37° C. In the next day, the test compounds were added to the wells and further incubated for 72 hours. The cell activity was detected using MTS. IC50 was calculated (the concentration of a compound that is required for 50% inhibition of the cell growth versus the DMSO control group, using nonlinear regression analysis of software GraphPad Prism). […] In a 96-well plate, each test compound was tested at 9 dosage concentrations and each dosage was made in triplicate. Samples were added in 100 μL/well. Cell control and negative control wells contained diluents instead of compounds. Except the negative control well, 100 μL cell suspension of complete medium was added into each test well, wherein corresponding cell numbers were included to assure that the cells in cell control well just cover the bottom of the well as the required incubation time was reached. The plate was incubated in a CO2 incubator at 37° C. for 48 hours. The liquid in test wells was removed by pipetting. 100 μL CCK-8 (Cell counting Kit-8, purchased from DOJINDO Molecular Technologies) detection liquid (containing 10% CCK-8, 5% FBS corresponding medium) was added into each test well, then the plate was incubated in a CO2 incubator under at 37° C. for 3 hours. OD value was detected by ELIASA at A450 nm. Cell viability percentage (%)=(O.D. test compound-O.D. blank)/(O.D. control-O.D. blank)×100. Mean value was calculated for each 3 repeated wells, and IC50 was calculated using nonlinear regression (fitted curve) data analysis method.

MDA-MB-231 = experiment: Inhibition of tumor cells, MTS method; assay type: cell-based; conditions: Homo sapiens, 72 hours
Experimental: as §2

A431 = experiment: Inhibition of tumor cells, MTS method; assay type: cell-based; conditions: Homo sapiens, A-431, 72 hours
Experimental: as §2

HCC827 = experiment: Inhibition of tumor cells, MTS method; assay type: cell-based; conditions: Homo sapiens, 72 hours
Experimental: as §2

H1734 = experiment: Inhibition of tumor cells, MTS method; assay type: cell-based; conditions: Homo sapiens, NCI-H1734, 72 hours
Experimental: as §2

H1650 = experiment: Inhibition of tumor cells, MTS method; assay type: cell-based; conditions: Homo sapiens, NCI-H1650, 72 hours
Experimental: as §2

H1975 = experiment: Inhibition of tumor cells, MTS method; assay type: cell-based; conditions: Homo sapiens, NCI-H1975, 72 hours
Experimental: as §2

BT474 = experiment: Inhibition of tumor cells, MTS method; assay type: cell-based; conditions: Homo sapiens, BT-474, 72 hours
Experimental: as §2

SK-Br-3 = experiment: Inhibition of tumor cells, MTS method; assay type: cell-based; conditions: Homo sapiens, 72 hours
Experimental: as §2

H292 = experiment: Inhibition of tumor cells, MTS method; assay type: cell-based; conditions: Homo sapiens, NCI-H292, 72 hours
Experimental: as §2

[2] = Long-term toxicity experiment (28 days) in dogs; assay type: in vivo; conditions: dogs, 5 mg/kg, 28 days; reaction of Afatinib group greater than compound Ie group
Experimental: (§3) Experiment Animals: rats, male, 6-8 weeks of age, body weight: 180-250 g; dogs, male, about 24 months, body weight: 7-10 kg.
(§4) Preparation of sample: in rat's experiments the mixed formulation powder of the compound Ie was formulated into 0.1, 0.3 and 1 mg/mL homogeneous suspension for use; administration route: oral administration; […]. In dog's experiments the tablets of compound Ie were fed to dogs. […].
(§5) Sample collection: blood was collected at the time points of 1, 10, 20 and 28 days respectively, about 120-200 μL whole blood was collected from 3 animals at each time point. Blood was collected at 1 h, 4 h, 8 h and 24 h after administration.
(§6) Sample analysis: the collected samples were detected by LC-MS/MS, and the instrument model was SHIMADZU20 A-API4000.
as §1

[3] = Long-term toxicity experiment (28 days) in rats; assay type: in vivo
Experimental: as §3, §4, §5, §6, §1

EGFR kinases = EGFR kinases (Homo sapiens, UniProt P00533); experiment: Reversible inhibition test of enzyme activity of EGFR kinases; assay type: biochemical
Sequence of EGFR kinases (P00533 25-1210): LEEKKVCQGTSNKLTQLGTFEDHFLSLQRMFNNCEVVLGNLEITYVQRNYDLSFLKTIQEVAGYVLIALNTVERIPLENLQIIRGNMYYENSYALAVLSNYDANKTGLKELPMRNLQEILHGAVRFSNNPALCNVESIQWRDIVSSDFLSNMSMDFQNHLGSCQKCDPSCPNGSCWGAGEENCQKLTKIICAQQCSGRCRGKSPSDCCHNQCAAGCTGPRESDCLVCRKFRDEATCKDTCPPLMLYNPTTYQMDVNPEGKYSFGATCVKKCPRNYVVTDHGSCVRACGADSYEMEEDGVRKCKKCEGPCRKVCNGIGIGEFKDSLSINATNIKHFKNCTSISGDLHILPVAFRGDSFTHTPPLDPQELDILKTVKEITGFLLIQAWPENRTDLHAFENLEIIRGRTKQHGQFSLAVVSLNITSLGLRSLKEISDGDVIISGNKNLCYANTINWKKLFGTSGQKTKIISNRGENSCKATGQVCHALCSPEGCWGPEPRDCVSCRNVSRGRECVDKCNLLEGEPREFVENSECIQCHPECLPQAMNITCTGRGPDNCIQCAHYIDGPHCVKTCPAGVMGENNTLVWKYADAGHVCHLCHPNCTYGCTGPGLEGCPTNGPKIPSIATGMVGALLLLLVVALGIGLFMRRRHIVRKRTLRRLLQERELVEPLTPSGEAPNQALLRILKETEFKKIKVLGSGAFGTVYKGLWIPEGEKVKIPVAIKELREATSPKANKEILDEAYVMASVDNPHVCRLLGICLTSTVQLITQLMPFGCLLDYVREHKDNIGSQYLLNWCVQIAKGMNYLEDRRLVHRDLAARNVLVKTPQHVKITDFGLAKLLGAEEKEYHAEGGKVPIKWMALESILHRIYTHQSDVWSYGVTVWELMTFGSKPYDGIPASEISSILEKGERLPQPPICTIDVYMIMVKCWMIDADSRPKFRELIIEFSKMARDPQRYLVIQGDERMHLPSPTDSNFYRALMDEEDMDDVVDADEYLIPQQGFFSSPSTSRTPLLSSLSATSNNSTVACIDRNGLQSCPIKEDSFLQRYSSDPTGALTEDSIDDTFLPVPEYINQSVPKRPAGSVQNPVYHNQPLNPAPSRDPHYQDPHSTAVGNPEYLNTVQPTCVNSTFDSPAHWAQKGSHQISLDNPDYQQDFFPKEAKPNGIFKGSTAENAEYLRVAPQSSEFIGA

Sequence of EGFR (P00533 25-1210): as above

SMILES	IC50 (EGFR)	IC50 (HER2)	AUC(0-inf) ([1]; 1 mg/kg Intravenous Injection)	AUC(0-t) ([1]; 1 mg/kg Intravenous Injection)	MRT inf ([1]; 1 mg/kg Intravenous Injection)	clearance ([1]; 1 mg/kg Intravenous Injection)	half-life ([1]; 1 mg/kg Intravenous Injection)	Vd ([1]; 1 mg/kg Intravenous Injection)	AUC(0-t) ([1]; 5 mg/kg Oral Administration)	Cmax ([1]; 5 mg/kg Oral Administration)	Tmax ([1]; 5 mg/kg Oral Administration)	IC50 (A549)	IC50 (MDA-MB-231)	IC50 (A431)	IC50 (HCC827)	IC50 (H1734)	IC50 (H1975)	IC50 (BT474)	IC50 (SK-Br-3)	IC50 (H292)	also measured
COc1cc2ncnc(Nc3ccc(F)c(Cl)c3)c2cc1NC(=O)/C=C/CN(C)Cc1ccccc1 [Compound Ic]	1.3 nM	15 nM	206 ng·h/mL	163 ng·h/mL	3.01 h	87.2 mL/min/kg	2.63 h	14.7 L/kg	283 ng·h/mL	66.7 ng/mL	2 h	> 10 µM	13.9 µM	13 µM	0.012 µM	5.26 µM	0.715 µM	0.278 µM	0.418 µM	0.727 µM	IC50 (H1650): > 10 µM
CN(C)C/C=C/C(=O)Nc1cc2c(Nc3ccc(F)c(Cl)c3)ncnc2cc1O[C@H]1CCOC1 [Afatinib, reference compound]																					toxicity reaction [2]: toxicity reactions; toxicity reaction ([3]; rat, in vivo, 10 mg/kg): very significant toxicity reaction; weight during recovery phase after drug withdrawal ([3]; rat, in vivo, 10 mg/kg): reduced weight during the recovery phase; toxicity reaction ([3]; rats, 5 mg/kg, 28 days): significant toxicity reaction
O=C(/C=C/c1ccccn1)Nc1cc2c(Nc3ccc(F)c(Cl)c3)ncnc2cc1OC1CCOC1 (stereo not drawn) [Compound Ib]	3.9 nM	90 nM											4.01 µM	0.899 µM	0.157 µM		30.8 µM	3.18 µM	3.1 µM	0.502 µM	
COc1cc2ncnc(Nc3ccc(F)c(Cl)c3)c2cc1NC(=O)/C=C/c1ccccn1 [Compound Id]	5.1 nM	> 10000 nM													0.04 µM			2.14 µM	0.155 µM	44.1 µM	
CN(C/C=C/C(=O)Nc1cc2c(Nc3ccc(F)c(Cl)c3)ncnc2cc1OC1CCOC1)Cc1ccccc1 (stereo not drawn) [Compound Ia]	2 nM	13 nM	110 ng·h/mL	104 ng·h/mL	0.616 h	153 mL/min/kg	0.729 h	5.47 L/kg	91.4 ng·h/mL	31.4 ng/mL	1.17 h	5.93 µM		4.91 µM	0.015 µM	1.34 µM	0.882 µM	0.264 µM	0.42 µM	0.873 µM	AUC(0-inf) ([1]; 5 mg/kg Oral Administration): 140 ng·h/mL; half-life ([1]; 5 mg/kg Oral Administration): 1.76 h; IC50 (H1650): 6.57 µM; reversibility of inhibition of EGFR kinases (EGFR kinases): irreversibility
